This note sets out measurements from patent publication US11485728B2, “Small molecules for the treatment of autoimmune diseases and cancer” (Athos Therapeutics, Inc., priority 2020, dated 2022).

Data set [1] can be described thus: Dosing formulation stability (physical, potency, impurity profile). It is filed as physicochemical. The settings on record: for Conc. (potency) / Observation (physical state): dosing formulation. The method, then: 5 mg/mL of test compound was formulated with 10% Dimethylacetamide (DMA), 30% Propylene Glycol, 35% PEG-300, 25% water (H2O). The formulation solution was stored at 4° C. and 25° C. The samples were retrieved at the following time points: 1 day, 3 days, 5 days, 7 days, 10 days and 14 days. The sample retrieved at each time point was examined visually observation of the physical state (texture and color) prior to sample preparation for analysis for physical stability. For chemical stability, the sample was diluted 1:250 dilution with acetonitrile (ACN) for potency analysis, and to 100 ug/mL final solution for impurity profile. The sample were prepared in triplication for potency analysis. The samples were then injected to HPLC for the determination of test compound concentration and its impurity profile. An Agilent 1260 Infinity II Lab LC Series HPLC system was used including 1260 Quat pump, 1260 vial autosampler, ICC column oven, and 1260 DAD WR detector. The chromatographic separation was achieved by a Phenomenex Synergi Polar RP column (150×4.6 mm, 4 μm, 80 Å). The flow rate was 1 mL/min and the detection was set at 254 nm. Injection volume was 10 uL, otherwise specified. The mobile phase consisted A, water with 0.1% trifluoroacetic acid and B, acetonitrile with 0.1% trifluoroacetic acid. […] For impurity profile, the gradient was A/B (99:1) from 0 minute; to A/B (1:99) from 0 to 15 minutes; A/B (1:99) from 15 to 18 minutes; to A/B (99:1) from 18 to 18.1 minutes; A/B (99:1) from 18.1 to 20 minutes. Data acquisition and peak integrations were obtained by OpenLAB CDS Version 2.4 (Agilent) operating with Windows (Microsoft).
Physical and chemical stability of dosing formulation lead to the investigation of potential impurities upon storage at various temperatures. The stability results can be used to assess the appropriate storage conditions and shelf life of a formulation, and can provide important information for drug formulation development, nonclinical, and clinical studies, especially on-going efficacy studies. The dosing formulation in these experiments contained 5 mg/mL test compound 1, with 10% Dimethylacetamide (DMA), 30% Propylene Glycol, 35% PEG-300, 25% water (H2O). The dosing formulation was stored at 4° C. and 25° C. The samples were retrieved at the following time points: 1 day and 3 days. The dosing formulation was diluted and analyzed for potency and impurity profile using reverse phase high pressure liquid chromatography. The impurity profile was described as the relative percent peak area of each peak detected.

Data set [2] in a line: in vitro. The settings on record: PAMPA, 5 hours at RT.
The test system of data set [3] is C57BL/6 mice with TNBS colitis. Briefly: TNBS colitis in C57BL/6 mice. Details: TNBS Efficacy / Clinical Score / Histological Score / Colon Length: key to the marks not given beside the values. It is filed as in vivo. As for the experimental part:
C57BL/6 mice (20-22 grams) were fed ad lib and assigned to 4 different groups (n=8/group). After a 72 hr acclimation period the test group groups received 25 mg/kg of test compound PO (gavage) in vehicle daily. A control group received vehicle alone. After 24 hrs, mice were weighed and TNBS was injected intra-colonically using 5 cm of polyethylene (¼ inch) tubing. Mice were then treated with the test compounds and weighed daily for 4 days. Mice were sacrificed on day 4 and clinical score was assessed. Intestinal tissue for and blood were also collected. Tissues were either flash frozen and kept in −80° C. for RNA and protein isolation or placed in 10% formalin solution for future histological analysis. Blood was spun at 5K rpm for 5 min and serum was collected and kept at −20° C. for multiplex cytokine analysis.

Consider `COc1cc2c(NC3CCS(=O)(=O)CC3)nc(N3CCC(F)(F)CC3)nc2cc1OCCCN1CCCC1` [Compound 1, 4-((2-(4,4-difluoropiperidin-1-yl)-6-methoxy-7-(3-(pyrrolidin-1-yl)propoxy)quinazolin-4-yl)amino)tetrahydro-2H-thiopyran 1,1-dioxide], for which the “Impurity Peak RRT 0.978, relative percent peak area” value in data set [1] (4° C., day 0) is 0.14%; in data set [1] (4° C., day 1) it was 0.14%; in data set [1] (4° C., day 3), 0.31%; in data set [1] (25° C., day 0) it was 0.14%; in data set [1] (25° C., day 1), 0.13%; in data set [1] (25° C., day 3), 0.30%. In addition, the “Peak RRT 1.00 (Compound 1), relative percent peak area” value in data set [1] (4° C., day 0) turned out to be 99.86%; in data set [1] (4° C., day 1) it was 99.86%; in data set [1] (4° C., day 3) it was 99.69%; in data set [1] (25° C., day 0), 99.86%; in data set [1] (25° C., day 1) it was 99.87%; in data set [1] (25° C., day 3), 99.70%. Also, the “Conc. (potency)” value in data set [1] (4° C., day 0) turned out to be 5560 µg/mL; in data set [1] (4° C., day 1), 5570 µg/mL; in data set [1] (4° C., day 3) it was 5650 µg/mL; in data set [1] (25° C., day 0), 5560 µg/mL; in data set [1] (25° C., day 1), 5470 µg/mL; in data set [1] (25° C., day 3), 6090 µg/mL. The “Observation (physical state)” value in data set [1] (4° C., day 0) is on record as “Clear solution”; in data set [1] (4° C., day 1) it was “Clear solution”; in data set [1] (4° C., day 3), “Clear solution”; in data set [1] (25° C., day 0) it was “Clear solution”; in data set [1] (25° C., day 1) it was “Clear solution”; in data set [1] (25° C., day 3) it was “Clear solution”.

As for `COc1cc2c(NC3CCN(C(C)C)CC3)nc(N3CCC(F)(F)CC3)nc2cc1OCCCN1CCCC1` [Compound 400, 2-(4,4-difluoropiperidin-1-yl)-N-(1-isopropylpiperidin-4-yl)-6-methoxy-7-(3-(pyrrolidin-1-yl)propoxy)quinazolin-4-amine, reference compound], the apparent permeability (Papp) in data set [2] (PAMPA permeability Classification, 20 μM donor) is 0.055 to 1.5 ×10⁻⁶ cm/s; in data set [2] (Permeability, Pe, 20 μM donor in PBS/MeOH 90:10) it was 0.178 ×10⁻⁶ cm/s.

Turning to `COc1cc2c(NC3CCOCC3)nc(N3CCC(F)(F)CC3)nc2cc1OCCCN1CCCC1` [Compound 2, 2-(4,4-difluoropiperidin-1-yl)-6-methoxy-7-(3-(pyrrolidin-1-yl)propoxy)-N-(tetrahydro-2H-pyran-4-yl)quinazolin-4-amine], the “colitis associated damage in the intestine (in words)” value in data set [3] (25 mg/kg PO daily) is “strong inhibitor of colitis associated damage in the intestine”. Also, in data set [3] (25 mg/kg PO daily, day 4), the “Clinical Score” value is recorded as “++”, the “Colon Length” value was “++”, the “Histological Score” value is listed as “++” and the “TNBS Efficacy” value was “++”. Further, in data set [3] (vs vehicle treated controls), the “histological scores (in words)” value was “positive outcomes”.
